Measured values reported in paper PMC5036617 (Toxicological Sciences, 2016).

Experiments:
HepG2 cells = assay: Mitochondrial stress test, OCR analysis (Seahorse XFe96); type: cell-based; settings: for basal respiration / maximal respiration: glucose medium, 7.8–500 µM; for basal respiration / maximal respiration / ATP-linked OCR as a percentage of maximal respiration / proton leak as a percentage of maximal respiration / spare respiratory capacity as a percentage of maximal respiration: vs vehicle control
Method: HepG2 cells were collected by trypsinization and seeded on a collagen-coated XF 96-well cell culture microplate (25 000 cells/100 µl medium/well) and incubated overnight in glucose medium (37 °C, 5% CO2). All assays used ≤ 0.5% DMSO as a vehicle control. Cells were incubated for 1 h (37°C, 0% CO2) before culture medium was replaced by 175 µl of unbuffered Seahorse XF Base medium supplemented with glucose (25 mM), L-glutamine (2 mM), sodium pyruvate (1 mM), pre-warmed to 37 °C (pH 7.4). Prior to measurement of OCR, the Seahorse XFe96 instrument gently mixed the assay medium in each well for 10 min to enable the oxygen partial pressure to reach equilibrium. […] There were 9 OCR measurement cycles following compound injection and each measurement cycle consisted of a 3 min mix and 3 min measure. […] After stress test compound injections there were 3 measurement cycles before the injection of the next stress test compound. This enabled the calculation of basal respiration (OCR prior to oligomycin injection—non-mitochondrial OCR), proton leak (OCR after oligomycin injection—non-mitochondrial OCR), ATP-linked OCR (basal respiration—proton leak—non-mitochondrial OCR), maximal respiration (first injection after FCCP injection—non-mitochondrial OCR) and spare respiratory capacity (maximal respiration—basal respiration) (Figure 2).  FIG. 2 Representative control mitochondrial stress test trace. Mitochondrial stress test assays consisted of a series of compound injections into the cell culture microplate. […] Remaining injections consisted of oligomycin (ATP synthase inhibitor), FCCP (OXPHOS uncoupler), and rotenone/antimycin A (complex I and III inhibitors, respectively) with each followed by 3 measurement cycles. This series of manipulations enabled the calculation of parameters: basal, ATP-linked, maximum, and non-mitochondrial OCR, as well as proton leak. Each measurement cycle was a total of 6 min. Following completion of OCR assays, medium was removed from all wells and 20 µl of somatic cell ATP releasing agent was added to each well before shaking for 1 min and transfer of 10 µl of lysate to a 96-well plate and performance of a BCA assay according to the manufacturer’s instructions. Protein content per well was used to normalize OCR.

[1] = ref Chu et al., 1998; Wysowski and Fourcroy, 1996; cited from earlier work
androgen receptor = test system: androgen receptor; parameters: method as in Shet et al., 1997; settings: metabolite compared with parent compound; ref Shet et al., 1997; cited from earlier work

Compound	basal respiration (HepG2 cells)	maximal respiration (HepG2 cells)	OCR upon compound injection, mitochondrial stress test (HepG2 cells; up to 500 µM)	ATP-linked OCR as a percentage of maximal respiration (HepG2 cells; up to 500 µM)	proton leak as a percentage of maximal respiration (HepG2 cells; up to 500 µM)	spare respiratory capacity as a percentage of maximal respiration (HepG2 cells; up to 500 µM)	cases of hospitalization or death (idiosyncratic DILI) in treated patients [1]	androgen receptor binding affinity (androgen receptor)
CC(C)C(=O)Nc1ccc([N+](=O)[O-])c(C(F)(F)F)c1 [Flutamide]	significant decrease	significant decrease	immediate concentration-dependent reduction in OCR	significant decrease	significant increase	significant decrease	0.03%	
CC(C)(O)C(=O)Nc1ccc([N+](=O)[O-])c(C(F)(F)F)c1 [2-hydroxyflutamide]	significant decrease	significant decrease		significant decrease	significant increase	significant decrease		higher androgen receptor binding affinity than its parent compound
